Results on 16 molecules are retold here after US20260265233A1, “BENZOTHIOPHENE DERIVATIVES AS RXFP1 AGONISTS” (BRISTOL-MYERS SQUIBB COMPANY, priority 2021, published 2026).

The assay deals with T1, human RXFP1 (Homo sapiens, UniProt Q9HBX9).
T1 construct: expressed in transfected cells
T1 sequence (Q9HBX9 1-757): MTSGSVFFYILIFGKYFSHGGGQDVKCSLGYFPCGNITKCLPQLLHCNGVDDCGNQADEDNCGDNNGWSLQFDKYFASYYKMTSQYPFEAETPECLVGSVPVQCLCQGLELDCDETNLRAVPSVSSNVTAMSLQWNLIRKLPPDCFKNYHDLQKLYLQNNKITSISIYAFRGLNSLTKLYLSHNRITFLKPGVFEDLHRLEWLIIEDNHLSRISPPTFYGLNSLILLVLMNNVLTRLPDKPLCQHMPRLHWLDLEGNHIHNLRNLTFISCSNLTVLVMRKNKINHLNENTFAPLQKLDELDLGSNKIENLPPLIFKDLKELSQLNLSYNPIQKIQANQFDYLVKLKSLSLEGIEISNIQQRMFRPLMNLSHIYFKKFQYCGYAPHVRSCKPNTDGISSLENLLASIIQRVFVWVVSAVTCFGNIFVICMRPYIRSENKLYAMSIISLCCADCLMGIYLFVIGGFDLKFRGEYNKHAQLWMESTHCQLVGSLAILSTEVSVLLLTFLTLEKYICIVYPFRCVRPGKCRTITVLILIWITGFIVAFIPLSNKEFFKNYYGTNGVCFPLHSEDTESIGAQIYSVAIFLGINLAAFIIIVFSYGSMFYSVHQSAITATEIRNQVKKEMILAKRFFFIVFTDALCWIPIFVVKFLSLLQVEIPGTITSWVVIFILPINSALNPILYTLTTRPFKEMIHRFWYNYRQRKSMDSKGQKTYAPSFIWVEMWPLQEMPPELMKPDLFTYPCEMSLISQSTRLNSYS
In words: hRXFP1 HEK293 cAMP assay (HTRF). It counts as cell-based. The conditions noted are these: HEK293 cells stably expressing human RXFP1; 30 min at rt; intracellular cAMP by HTRF. In outline: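 HEK293 cells stably expressing human RXFP1 treated 30 min at rt with compound (0.010 nM to 50 μM, 2% DMSO) in HBSS/HEPES buffer with 0.5 mM IBMX. Intracellular cAMP measured by HTRF (665/590 nm ratio) against a cAMP standard curve; potency fitted by 4-parameter logistic.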

Take `COc1ccc(C2CC2C(=O)NCC(C)(C)O)cc1C(=O)Nc1c(C(=O)Nc2ccc(F)c(C(F)(F)F)c2)sc2cc(C(F)(F)F)ccc12` (stereo not shown) [Example 170, N-[4-fluoro-3-(trifluoromethyl)phenyl]-3-(5-{2-[(2-hydroxy-2-methylpropyl)carbamoyl]cyclopropyl}-2-methoxy-benzamido)-6-(trifluoromethyl)-1-benzothiophene-2-carboxamide]: the EC50 stood at 1.1 µM.
The figure for `COc1ccc(C2CCN(CC(N)=O)C2)cc1C(=O)Nc1c(C(=O)Nc2ccc(F)c(C(F)(F)F)c2)sc2cc(C(F)(F)F)ccc12` (stereo not shown) [Example 147, 3-(5-(1-(2-amino-2-oxoethyl)pyrrolidin-3-yl)-2-methoxy-benzamido)-N-(4-fluoro-3-(trifluoromethyl)phenyl)-6-(trifluoromethyl) benzo[b] thiophene-2-carboxamide] is 1.43 µM.
The figure for `COc1ccc(C2CCCN(CCO)CC2)cc1C(=O)Nc1c(C(=O)Nc2ccc(F)c(C(F)(F)F)c2)sc2cc(C(F)(F)F)ccc12` (single isomer, unassigned) [Example 69, N-(4-fluoro-3-(trifluoromethyl)phenyl)-3-(5-(1-(2-hydroxyethyl)azepan-4-yl)-2-methoxy-benzamido)-6-(trifluoromethyl) benzo[b] thiophene-2-carboxamide] is 0.76 µM.
Under `COc1ccc(-c2cnc(C3(O)CCS(=O)(=O)C3)nc2)cc1C(=O)Nc1c(C(=O)Nc2ccc(F)c(C(F)(F)F)c2)sc2cc(C(F)(F)F)ccc12` (single isomer, unassigned) [Example 24, N-(4-fluoro-3-(trifluoromethyl)phenyl)-3-(5-(2-(3-hydroxy-1,1-dioxidotetrahydrothiophen-3-yl)pyrimidin-5-yl)-2-methoxybenzamido)-6-(trifluoromethyl)benzo[b]thiophene-2-carboxamide] stands 3.36 µM; under `COc1ccc(C#CCO)cc1C(=O)Nc1c(C(=O)Nc2ccc(F)c(C(F)(F)F)c2)sc2cc(C(F)(F)F)ccc12` [Example 42, N-(4-fluoro-3-(trifluoromethyl)phenyl)-3-(5-(3-hydroxyprop-1-yn-1-yl)-2-methoxybenzamido)-6-(trifluoromethyl)benzo[b]thiophene-2-carboxamide], 0.467 µM; under `COc1ccc(-n2cc(C(=O)O)cn2)cc1C(=O)Nc1c(C(=O)Nc2ccc(F)c(C(F)(F)F)c2)sc2cc(C(F)(F)F)ccc12` [Example 2, 1-(3-((2-((4-fluoro-3-(trifluoromethyl)phenyl)carbamoyl)-6-(trifluoromethyl)benzo[b]thiophen-3-yl)carbamoyl)-4-methoxyphenyl)-1H-pyrazole-4-carboxylic acid], 2.01 µM.
In turn, `COc1ncc(N2CC3(C2)CS(=O)(=O)C3)cc1C(=O)Nc1c(C(=O)Nc2ccc(F)c(C(F)(F)F)c2)sc2cc(C(F)(F)F)ccc12` [Example 234, 5-(2,2-dioxido-2-thia-6-azaspiro[3.3]heptan-6-yl)-N-(2-((4-fluoro-3-(trifluoromethyl)phenyl)carbamoyl)-6-(trifluoromethyl)benzo[b]thiophen-3-yl)-2-methoxy-nicotinamide] displayed an EC50 of 1.34 µM.
The figure for `COc1ccc(C(=O)N2CC(C)(C)C2)cc1C(=O)Nc1c(C(=O)Nc2ccc(F)c(C(F)(F)F)c2)sc2cc(Cl)ncc12` [Example 240, 6-chloro-3-(5-(3,3-dimethyl-azetidine-1-carbonyl)-2-methoxy-benzamido)-N-(4-fluoro-3-(trifluoromethyl)phenyl)thieno [3,2-c]pyridine-2-carboxamide] is 3.3 µM; for `COc1ccc(C2=NOC3COCC23)cc1C(=O)Nc1c(C(=O)Nc2ccc(F)c(C(F)(F)F)c2)sc2cc(C(F)(F)F)ccc12` (single isomer, unassigned) [Example 255, 3-(5-{3aH,4H,6H,6aH-furo[3,4-d][1,2]oxazol-3-yl}-2-methoxy-benzamido)-N-[4-fluoro-3-(trifluoromethyl)phenyl]-6-(trifluoromethyl)-1-benzothiophene-2-carboxamide] it is 0.498 µM.
The figure for `COc1ccc(C2CCCN(C(=O)C(C)(C)CO)C2)cc1C(=O)Nc1c(C(=O)Nc2ccc(F)c(C(F)(F)F)c2)sc2cc(C(F)(F)F)ccc12` (single isomer, unassigned) [Example 93, N-[4-fluoro-3-(trifluoromethyl)phenyl]-3-{5-[1-(3-hydroxy-2,2-dimethyl-propanoyl)piperidin-3-yl]-2-methoxy-benzamido}-6-(trifluoromethyl)-1-benzothiophene-2-carboxamide] is 0.0484 µM; for `COc1ccc(C2CCCN(CCCO)C2)cc1C(=O)Nc1c(C(=O)Nc2ccc(F)c(C(F)(F)F)c2)sc2cc(C(F)(F)F)ccc12` (stereo not shown) [Example 90, N-(4-fluoro-3-(trifluoromethyl)phenyl)-3-(5-(1-(3-hydroxypropyl)piperidin-3-yl)-2-methoxy-benzamido)-6-(trifluoromethyl) benzo[b] thiophene-2-carboxamide] it is 1.58 µM.
The figure for `COc1ccc(CNC(c2ccc(F)c(-c3ccc(OC)c(C(=O)Nc4c(C(=O)Nc5ccc(F)c(C(F)(F)F)c5)sc5cc(C(F)(F)F)ccc45)c3)c2)C(F)(F)F)cc1OC` (single isomer, unassigned) [Example 115, 3-(5′-(1-((3,4-dimethoxybenzyl)amino)-2,2,2-trifluoroethyl)-2′-fluoro-4-methoxy-[1,1′-biphenyl]-3-carboxamido)-N-(4-fluoro-3-(trifluoromethyl)phenyl)-6-(trifluoromethyl) benzo[b] thiophene-2-carboxamide] is 0.098 µM; for `COc1ccc(C2CC3(C2)CN(C2COC2)C3)cc1C(=O)Nc1c(C(=O)Nc2ccc(F)c(C(F)(F)F)c2)sc2cc(C(F)(F)F)ccc12` [Example 106, N-(4-fluoro-3-(trifluoromethyl)phenyl)-3-(2-methoxy-5-(2-(oxetan-3-yl)-2-azaspiro[3.3]heptan-6-yl)benzamido)-6-(trifluoromethyl) benzo[b] thiophene-2-carboxamide] it is 0.248 µM.
With `COc1ccc(N2CCCC(C(=O)NC3COC3)C2)cc1C(=O)Nc1c(C(=O)Nc2ccc(F)c(C(F)(F)F)c2)sc2cc(C(F)(F)F)ccc12` (single isomer, unassigned) [Example 229, 1-(3-((2-((4-fluoro-3-(trifluoromethyl)phenyl)carbamoyl)-6-(trifluoromethyl)benzo [b]thiophen-3-yl)carbamoyl)-4-methoxyphenyl)-N-(oxetan-3-yl)piperidine-3-carboxamide], it took 2.57 µM to reach a half-maximal effect (EC50).
The figure for `COc1ccc(C2CCCC(C)(O)C2)cc1C(=O)Nc1c(C(=O)Nc2ccc(F)c(C(F)(F)F)c2)sc2cc(C(F)(F)F)ccc12` (single isomer, unassigned) [Example 36, N-(4-fluoro-3-(trifluoromethyl)phenyl)-3-(5-(3-hydroxy-3-methylcyclohexyl)-2-methoxybenzamido)-6-(trifluoromethyl)benzo[b]thiophene-2-carboxamide] is 0.244 µM; for `COc1ccc(C2CCCN(CC(O)CO)C2)cc1C(=O)Nc1c(C(=O)Nc2ccc(F)c(C(F)(F)F)c2)sc2cc(C(F)(F)F)ccc12` (stereo not shown) [Example 88, 3-(5-(1-(2,3-dihydroxypropyl)piperidin-3-yl)-2-methoxy-benzamido)-N-(4-fluoro-3-(trifluoromethyl)phenyl)-6-(trifluoromethyl) benzo[b] thiophene-2-carboxamide] it is 1.54 µM.
